No end group written: not given here.
Tests used:
[1] = molecular target: T1, CRF2 receptor (hCRF2α) (Homo sapiens, UniProt Q13324); experiment: cAMP accumulation (LANCE) in Cos7 cells transfected with hCRF2α, agonist stimulation; assay type: cell-based
T1 construct: host or cells: Cos7 cells, transient transfection (PEI), pcDNA3.0/3.1 vector
T1 sequence (Q13324 1-411): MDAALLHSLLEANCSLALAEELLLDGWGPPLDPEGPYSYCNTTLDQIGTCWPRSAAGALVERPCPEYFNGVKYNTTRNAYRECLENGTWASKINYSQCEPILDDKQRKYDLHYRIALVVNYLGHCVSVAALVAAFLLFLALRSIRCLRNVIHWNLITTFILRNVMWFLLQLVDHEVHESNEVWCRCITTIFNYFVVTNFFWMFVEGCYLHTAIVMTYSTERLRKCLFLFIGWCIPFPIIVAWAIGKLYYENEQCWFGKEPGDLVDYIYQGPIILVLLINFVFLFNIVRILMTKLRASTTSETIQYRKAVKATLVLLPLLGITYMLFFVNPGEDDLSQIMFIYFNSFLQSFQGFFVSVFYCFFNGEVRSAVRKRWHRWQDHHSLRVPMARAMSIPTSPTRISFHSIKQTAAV
Description: (§1) Plasmids containing hCRF1α and hCRF2α (GenBank accession numbers AY457172 and AY449734) were obtained from the cDNA Resource Centre (Bloomsburg University) and are referred to as CRF1 and CRF2 in this manuscript. Hemagglutinin (HA) epitope‐tagged human Calcitonin (CT) receptor (CT(a) splice variant) and myc‐tagged human RAMP1 were used as described previously. ^27 HA‐tagged human calcitonin receptor‐like receptor (CLR), N‐terminal FLAG‐tagged human RAMP3 and N‐terminal myc‐tagged human RAMP3 were a gift from Professor David Poyner (Aston University) and Professor Patrick Sexton (Monash University), respectively. N‐terminal FLAG‐tagged human RAMP2 was used as described previously. ^28 All receptors and RAMPs were cloned in pcDNA3.0 or pcDNA3.1 plasmid vectors. All plasmid inserts were sequenced at the Centre for Genomics, Proteomics and Metabolomics (University of Auckland) and the sequences were verified prior to use.
(§2) Cos7, HEK‐293S, and HEK‐293T cells were cultured as described previously. ^28 , ^29 Cos7 cells were originally supplied by the ATCC to Associate Professor Nigel Birch (University of Auckland). HEK‐293S cells were a gift from Professor David Poyner (Aston University) and HEK‐293T cells a gift from Professor John Taylor (University of Auckland). Briefly, all cell lines were cultured in Dulbecco's Modified Eagle Medium (DMEM) supplemented with 8% heat inactivated fetal bovine serum (FBS) and maintained in a humidified incubator at 37°C with 5% CO2. For transfection, cells were counted (Countess CounterTM; Life Technologies) and plated at a density of 20 000 cells per well in 96‐well plates. The cells were transiently transfected 48 hours prior to assaying using polyethylenimine (PEI), as described previously. ^28 , ^29 In all experiments a total of 0.25 μg DNA was transfected per well. In the majority of experiments 0.25 μg DNA of receptor‐containing plasmid or the pcDNA3.1 plasmid without an insert was used. For experiments involving RAMPs, 0.125 μg of receptor DNA and 0.125 μg of RAMP‐containing plasmid DNA were transfected to give a 1:1 ratio of receptor to RAMP. Where the RAMP or receptor were transfected alone, the ratio of DNA was made up with the pcDNA3.1 plasmid.
cAMP accumulation in Cos7 cells transfected with hCRF1α or hCRF2α receptors was measured using the LANCE cAMP detection assay kit (PerkinElmer Life and Analytical Sciences) as described previously. ^30 Briefly, culture media was removed and replaced with DMEM containing 0.1% bovine albumin serum (BSA) and 1 mmol/L 3‐isobutyl‐1‐methylxanthine (IBMX) for 30 minutes at 37°C. Cells were incubated for an additional 15 minutes at 37°C with media or agonist concentrations of 1 pmol/L to 1 µmol/L for agonist only assays or 10 pmol/L to 10 µmol/L concentrations for antagonist experiments. Antagonists were added simultaneously or immediately prior to the addition of agonists. To stop cell stimulation and extract cAMP, the contents of the wells were replaced with 50 µL absolute ethanol. Samples were left at −20°C for a minimum of 10 minutes. The ethanol was evaporated and replaced with 50 µL of cAMP detection buffer. Samples were shaken for 15 minutes before 5 µL cell lysate was transferred to a white 384‐well optiplate and processed for cAMP quantification as described previously. ^31 Samples were read using an Envision plate reader (PerkinElmer). cAMP concentrations were determined from a standard curve generated in duplicate.
In all experiments the position of peptides and antagonists (pharmacology) or transfected receptors (ELISAs) on assay plates was randomized during each independent experiment, which are independent biological replicates. In all cases, duplicate, triplicate, or quadruplicate technical replicates were conducted for each independent experiment.

[2] = molecular target: T1, CRF2 receptor (hCRF2α); experiment: ERK1/2 phosphorylation (AlphaLISA Surefire Ultra) in Cos7 cells transfected with hCRF2α; assay type: cell-based
Description: as §1, §2
The AlphaLISA Surefire Ultra extracellular signal‐regulated kinase 1/2 (ERK1/2) phosphorylation (pERK1/2) assay kit (PerkinElmer Life and Analytical Sciences) was used to measure pERK1/2 in cell lysates after agonist stimulation. For these assays 20% FBS was used as a positive control. Following peptide stimulation at 37°C for 0‐30 minutes with 100 nmol/L agonist (time courses) or 7 minutes with media alone or 1 pmol/L to 1 µmol/L agonist, media was removed and 20 µL of lysis buffer added to each well. Plates were shaken at room temperature for 10 minutes. Each sample was then transferred to a 384‐well optiplate and pERK1/2 measurement performed as per the manufacturer's instructions. Samples were read using an Envision plate reader (PerkinElmer).
In all experiments the position of peptides and antagonists (pharmacology) or transfected receptors (ELISAs) on assay plates was randomized during each independent experiment, which are independent biological replicates. In all cases, duplicate, triplicate, or quadruplicate technical replicates were conducted for each independent experiment. For transfected cell experiments, each independent experiment involved plating cells from a distinct passage, separate transient transfection and separate signaling or ELISA assays, constituting experimental n. For ERK1/2 and IP1 signaling pathways, time‐course experiments were first conducted with a saturating concentration of UCN1 to determine the optimal time to conduct concentration‐response experiments. Concentration‐response experiments were then conducted with the same experimental design for cAMP, ERK1/2, and IP1 pathways. […] All group sizes were designed to be equal at n = 5 independent experiments.

Q: What does the source list for “DNPSLSIDLTFHLLRTLLELARTQSQRERAEQNRIIFDSV-NH2 [UCN1]”?
A: EC50 ([1]; cAMP, hCRF2α, Cos7, 15 min at 37°C, 1 mmol/L IBMX, 1 pmol/L to 1 µmol/L agonist, mean ± SEM, n = 5): 0.0955 nM; EC50 ([2]; pERK1/2, hCRF2α, Cos7, 7 min at 37°C, 1 pmol/L to 1 µmol/L agonist, mean ± SEM, n = 5): 5.62 nM

Q: “IVLSLDVPIGLLQILLEQARARAAREQATTNARILARVGHC-NH2 (C-terminus assumed) [UCN2]” was tested. Which “concentration‐dependent increase in cAMP” value ([1]; CRF2 receptor) did it give?
A: concentration‐dependent increases

Q: What about the “ΔΔlog(τ/K A) (signaling bias)” value ([1]; cAMP (reference pathway), hCRF2α, reference agonist UCN1, mean ± SEM, n = 5) of the same substance?
A: 0.00 ± 0.27

Q: And the Hill slope ([1]; cAMP, CRF2 receptor)?
A: not significantly different from one

Q: What about the “Δlog(τ/K A) (relative efficacy)” value ([1]; cAMP, hCRF2α, reference agonist UCN1, mean ± SEM, n = 5) of the same substance?
A: −0.55 ± 0.19

Q: And the “ability to produce pERK1/2, comparison of peptides” value ([2]; CRF2 receptor)?
A: no significant difference

Q: And the “concentration‐dependent increase in pERK1/2” value ([2]; CRF2 receptor)?
A: concentration‐dependent increases

Q: What about the Hill slope ([2]; pERK1/2, CRF2 receptor) of the same substance?
A: 0.23

Q: And the “Δlog(τ/K A) (relative efficacy)” value ([2]; pERK1/2, hCRF2α, reference agonist UCN1, mean ± SEM, n = 5)?
A: −0.19 ± 0.42

Q: And the “ΔΔlog(τ/K A) (signaling bias)” value ([2]; pERK1/2 relative to cAMP, hCRF2α, reference agonist UCN1, mean ± SEM, n = 5)?
A: 0.36 ± 0.46

Reference: publication PMC7290078, “Agonist bias and agonist‐dependent antagonism at corticotrophin releasing factor receptors” (Pharmacology Research & Perspectives, 2020)
